± gives the expanded uncertainty stated by the source.
Conditions: 101.33 kPa, Liquid; for speed of sound: Pulse-echo method; for mass density: Vibrating tube method

CC(C)C(=O)[O-].C[NH2+]CCO [2-hydroxy-N-methylethanaminium isobutyrate]
Conditions	mass density [kg/m3]	speed of sound [m/s]	viscosity [mPa·s]
278.15 K	1056.12 ± 2.2	1670.2 ± 2.2	–
278.4 K	1055.96 ± 2.2	1669.4 ± 2.2	–
278.65 K	1055.8 ± 2.2	1668.6 ± 2.2	–
278.9 K	1055.64 ± 2.2	1667.8 ± 2.2	–
279.15 K	1055.48 ± 2.2	1667 ± 2.2	–
279.4 K	1055.32 ± 2.2	1666.2 ± 2.2	–
279.65 K	1055.16 ± 2.2	1665.4 ± 2.1	–
279.9 K	1055 ± 2.2	1664.7 ± 2.1	–
280.15 K	1054.85 ± 2.2	1663.9 ± 2.1	–
280.4 K	1054.68 ± 2.2	1663.1 ± 2.1	–
280.65 K	1054.52 ± 2.2	1662.3 ± 2.1	–
280.9 K	1054.36 ± 2.2	1661.5 ± 2.1	–
281.15 K	1054.2 ± 2.2	1660.8 ± 2.1	–
281.4 K	1054.04 ± 2.2	1660 ± 2.1	–
281.65 K	1053.88 ± 2.2	1659.2 ± 2.1	–
281.9 K	1053.72 ± 2.2	1658.5 ± 2.1	–
282.15 K	1053.56 ± 2.2	1657.7 ± 2.1	–
282.4 K	1053.4 ± 2.2	1657 ± 2.1	–
282.65 K	1053.24 ± 2.2	1656.2 ± 2.1	–
282.9 K	1053.08 ± 2.2	1655.4 ± 2.1	–
283.15 K	1052.92 ± 2.2	1654.7 ± 2.1	–
283.4 K	1052.76 ± 2.2	1653.9 ± 2.1	–
283.65 K	1052.6 ± 2.2	1653.2 ± 2.1	–
283.9 K	1052.43 ± 2.2	1652.4 ± 2.1	–
284.15 K	1052.27 ± 2.2	1651.7 ± 2.1	–
284.4 K	1052.11 ± 2.2	1650.9 ± 2.1	–
284.65 K	1051.95 ± 2.2	1650.2 ± 2.1	–
284.9 K	1051.79 ± 2.2	1649.4 ± 2.1	–
285.15 K	1051.63 ± 2.2	1648.7 ± 2.1	–
285.4 K	1051.47 ± 2.2	1647.9 ± 2.1	–
285.65 K	1051.31 ± 2.2	1647.2 ± 2.1	–
285.9 K	1051.14 ± 2.2	1646.4 ± 2.1	–
286.15 K	1050.98 ± 2.2	1645.9 ± 2.1	–
286.4 K	1050.82 ± 2.2	1645.2 ± 2.1	–
286.65 K	1050.66 ± 2.2	1644.4 ± 2.1	–
286.9 K	1050.49 ± 2.2	1643.7 ± 2.1	–
287.15 K	1050.33 ± 2.2	1642.9 ± 2.1	–
287.4 K	1050.17 ± 2.2	1642.2 ± 2.1	–
287.65 K	1050.01 ± 2.2	1641.5 ± 2.1	–
287.9 K	1049.85 ± 2.2	1640.7 ± 2.1	–
288.15 K	1049.68 ± 2.2	1640 ± 2.1	301.35 ± 37
288.4 K	1049.52 ± 2.2	1639.3 ± 2.1	–
288.65 K	1049.36 ± 2.2	1638.5 ± 2.1	–
288.9 K	1049.19 ± 2.2	1637.8 ± 2.1	–
289.15 K	1049.03 ± 2.2	1637.1 ± 2.1	–
289.4 K	1048.87 ± 2.2	1636.3 ± 2.1	–
289.65 K	1048.72 ± 2.2	1635.6 ± 2.1	–
289.9 K	1048.56 ± 2.2	1634.9 ± 2.1	–
290.15 K	1048.41 ± 2.2	1634.2 ± 2.1	–
290.4 K	1048.25 ± 2.2	1633.4 ± 2.1	–
290.65 K	1048.09 ± 2.2	1632.7 ± 2.1	–
290.9 K	1047.94 ± 2.2	1632 ± 2.1	–
291.15 K	1047.79 ± 2.2	1631.2 ± 2.1	–
291.4 K	1047.63 ± 2.2	1630.5 ± 2.1	–
291.65 K	1047.47 ± 2.2	1629.8 ± 2.1	–
291.9 K	1047.31 ± 2.2	1629.1 ± 2.1	–
292.15 K	1047.16 ± 2.2	1628.4 ± 2.1	–
292.4 K	1047 ± 2.2	1627.7 ± 2.1	–
292.65 K	1046.84 ± 2.2	1626.9 ± 2.1	–
292.9 K	1046.68 ± 2.2	1626.2 ± 2.1	–
293.15 K	1046.53 ± 2.2	1625.5 ± 2.1	220.69 ± 23
293.4 K	1046.37 ± 2.2	1624.8 ± 2.1	–
293.65 K	1046.21 ± 2.2	1624.1 ± 2.1	–
293.9 K	1046.06 ± 2.2	1623.4 ± 2.1	–
294.15 K	1045.9 ± 2.2	1622.7 ± 2.1	–
294.4 K	1045.74 ± 2.2	1622 ± 2.1	–
294.65 K	1045.59 ± 2.2	1621.2 ± 2.1	–
294.9 K	1045.43 ± 2.2	1620.5 ± 2.1	–
295.15 K	1045.27 ± 2.2	1619.8 ± 2.1	–
295.4 K	1045.11 ± 2.2	1619.1 ± 2.1	–
295.65 K	1044.96 ± 2.2	1618.4 ± 2.1	–
295.9 K	1044.8 ± 2.2	1617.7 ± 2.1	–
296.15 K	1044.63 ± 2.2	1617 ± 2.1	–
296.4 K	1044.48 ± 2.2	1616.3 ± 2.1	–
296.65 K	1044.32 ± 2.2	1615.6 ± 2.1	–
296.9 K	1044.17 ± 2.2	1614.9 ± 2.1	–
297.15 K	1044.01 ± 2.2	1614.2 ± 2.1	–
297.4 K	1043.84 ± 2.2	1613.4 ± 2.1	–
297.65 K	1043.68 ± 2.2	1612.7 ± 2.1	–
297.9 K	1043.52 ± 2.2	1612 ± 2.1	–
298.15 K	1043.37 ± 2.2	1611.3 ± 2.1	163.08 ± 13
298.4 K	1043.2 ± 2.2	1610.6 ± 2.1	–
298.65 K	1043.05 ± 2.2	1609.9 ± 2.1	–
298.9 K	1042.89 ± 2.2	1609.2 ± 2.1	–
299.15 K	1042.73 ± 2.2	1608.5 ± 2.1	–
299.4 K	1042.57 ± 2.2	1607.8 ± 2.1	–
299.65 K	1042.41 ± 2.2	1607.1 ± 2.1	–
299.9 K	1042.25 ± 2.2	1606.3 ± 2.1	–
300.15 K	1042.09 ± 2.2	1605.6 ± 2.1	–
300.4 K	1041.93 ± 2.2	1604.9 ± 2.1	–
300.65 K	1041.77 ± 2.2	1604.2 ± 2.1	–
300.9 K	1041.61 ± 2.2	1603.5 ± 2.1	–
301.15 K	1041.45 ± 2.2	1602.8 ± 2.1	–
301.4 K	1041.29 ± 2.2	1602.1 ± 2.1	–
301.65 K	1041.13 ± 2.2	1601.4 ± 2.1	–
301.9 K	1040.96 ± 2.2	1600.7 ± 2.1	–
302.15 K	1040.81 ± 2.2	1600 ± 2.1	–
302.4 K	1040.64 ± 2.2	1599.3 ± 2.1	–
302.65 K	1040.49 ± 2.2	1598.6 ± 2.1	–
302.9 K	1040.32 ± 2.2	1597.8 ± 2.1	–
303.15 K	1040.17 ± 2.2	1597.2 ± 2.1	124.67 ± 8
303.4 K	1040 ± 2.2	1596.4 ± 2.1	–
303.65 K	1039.84 ± 2.2	1595.7 ± 2.1	–
303.9 K	1039.68 ± 2.2	1595 ± 2.1	–
304.15 K	1039.52 ± 2.2	1594.3 ± 2.1	–
304.4 K	1039.36 ± 2.2	1593.6 ± 2.1	–
304.65 K	1039.19 ± 2.2	1592.9 ± 2.1	–
304.91 K	1039.03 ± 2.2	1592.2 ± 2.1	–
305.15 K	1038.87 ± 2.2	1591.5 ± 2.1	–
305.4 K	1038.71 ± 2.2	1590.8 ± 2.1	–
305.65 K	1038.55 ± 2.2	1590.1 ± 2.1	–
305.9 K	1038.39 ± 2.2	1589.4 ± 2.1	–
306.15 K	1038.23 ± 2.2	1588.7 ± 2.1	–
306.4 K	1038.06 ± 2.2	1588 ± 2.1	–
306.65 K	1037.9 ± 2.2	1587.3 ± 2.1	–
306.9 K	1037.74 ± 2.2	1586.6 ± 2.1	–
307.15 K	1037.58 ± 2.2	1585.9 ± 2.1	–
307.4 K	1037.41 ± 2.2	1585.2 ± 2.1	–
307.65 K	1037.25 ± 2.2	1584.5 ± 2.1	–
307.9 K	1037.09 ± 2.2	1583.8 ± 2.1	–
308.15 K	–	–	98.28 ± 4.8
